Source: publication PMC6694100, “The complex of ferric-enterobactin with its transporter from Pseudomonas aeruginosa suggests a two-site model” (Nature Communications, 2019)
Values joined by “and” are separate entries in the source; they are usually repeats but may differ in a detail not shown here. Identical values can stand only once.

Columns and labels:
PfeA = target: T1, PfeA (Pseudomonas aeruginosa, UniProt Q05098); test: coelution on S200 size-exclusion column, PfeA wild-type; assay type: binding
T1 construct: His7 tag with TEV protease site (N, cleaved yes); made in house; host or cells: E. coli C43 (DE3)
Description: Proteins were incubated with the Fe^3+-siderophore before being loaded on a S200 size-exclusion column.
Crystals of PfeA appeared at 20 °C after few days by mixing 2 μl of protein solution (10 mg.ml^−1) with 1 μl of reservoir solution containing 11% polyethylene glycol 8000, 0.05 M ADA pH 6.5 and 0.1 M magnesium acetate. Crystals were frozen with the same solution containing 25% ethylene glycol. Enterobactin structure complexes were obtained by soaking apo crystals for few hours with mother liquor containing 5 mM Fe^3+-enterobactin before cryoprotection. For the others complexes, crystals were cross-linked by diffusion of 25% glutaraldehyde prior the soaking. Co-crystallisation attempts have been performed by incubating the protein for 1 h at room temperature with the ligand before been loaded on a S200 16/60 column and concentrated for setting up the crystallisation plates. No crystals have been obtained by co-crystallisation. Crystallisation conditions of the mutants were the same as for the wild-type.

[1] = system: ∆pfeA(pMMBpfeA) cells (native PfeA); test: 55Fe-enterobactin binding and uptake assay, ∆pfeA(pMMBpfeA); assay type: cell-based, Pseudomonas aeruginosa; conditions: for Comptage (dpm): replicate counts; for Comptage (dpm) / 55Fe incorporated, pmol/ml/DO600: Supplementary Fig 10, listed as 55Fe-enterobactin; for 55Fe incorporated, pmol/ml/DO600: replicates
Description: Fig. 6 Effects of PfeA mutation in vivo. a Analysis of changes in the transcription of pfeA gene. PAO1 strain, its corresponding deletion mutant ∆pfeA and deletion mutants carrying the expression plasmid of PfeA wild-type (∆pfeA(pMMBpfeA) or the R480A-Q482A mutant (∆pfeA(pMMBpfeAR480AQ482A)) were grown in CAA medium supplemented with 10 µM enterobactin. The data were normalised relative to the reference gene uvrD, and are representative of three independent experiments performed in triplicate (n = 3). The results are given as a ratio between the values obtained for ∆pfeA, ∆pfeA(pMMBpfeA) and ∆pfeA(pMMBpfeAR480AQ482A) over those obtained for the PAO1 strain. b ^55Fe-enterobactin binding at the bacterial surface. Cells were grown as in panel a, and were incubated for 15 min with 200 µM CCCP before initiation of transport assays by the addition of 500 nM ^55Fe-enterobactin. After 30 min incubation, the radioactivity accumulated in the bacteria was counted. The results are expressed as pmol of ^55Fe-enterobactin bound per ml of cells at an OD600 of 1. The experiments have been repeated three times. c ^55Fe-enterobactin binding and uptake. Cells were grown as in panel a, and were incubated with or without 200 µM CCCP before initiation of transport assays by the addition of 500 nM ^55Fe-enterobactin. After 30 min incubations, the radioactivity accumulated in the bacteria was counted. The results are expressed as pmol of ^55Fe-enterobactin bound and transported per ml of cells at an OD600 of 1. The experiments have been repeated three times
The complex was prepared at ^55Fe concentrations of 50 μM, with a siderophore:iron (mol:mol) ratio of 20:1. P. aeruginosa strains were first grown overnight at 30 °C in LB broth, and were then washed, resuspended and cultured overnight at 30 °C in iron-deficient CAA medium (casamino acid medium, composition: 5 g.l^−1 low-iron CAA (Difco), 1.46 g.l^−1 K2HPO4 3H2O, 0.25 g.l^−1 MgSO4 7H2O) and in the presence of 10 µM enterobactin to induce the expression of PfeA. CAA is a highly iron-restricted medium with iron concentrations of 20 nM[59]. Afterwards bacteria were washed with 50 mM Tris-HCl pH 8.0, and diluted to an OD600 of 1. Cells solutions were divided in two, one batch being treated with 200 μM CCCP. This compound collapses the proton-motive force across the bacterial cell membranes, inhibiting TonB-dependent iron uptake. Binding and transport assays were initiated by adding 500 nM ^55Fe-enterobactin to the bacterial solutions treated or not with CCCP. After 30 min of incubations, cells were centrifuged, and the radioactivity associated to the bacteria was monitored in the cell pellets. For the cells treated with CCCP, the radioactivity in the cell pellets corresponds to the binding of ^55Fe-enterobactin to P. aeruginosa cell surface, since no uptake occurs. In the absence of CCCP, the radioactivity associated to the cells corresponds to ^55Fe-enterobactin binding to the cell surface and the uptake into the bacteria.

T1 sequence (Q05098 26-746): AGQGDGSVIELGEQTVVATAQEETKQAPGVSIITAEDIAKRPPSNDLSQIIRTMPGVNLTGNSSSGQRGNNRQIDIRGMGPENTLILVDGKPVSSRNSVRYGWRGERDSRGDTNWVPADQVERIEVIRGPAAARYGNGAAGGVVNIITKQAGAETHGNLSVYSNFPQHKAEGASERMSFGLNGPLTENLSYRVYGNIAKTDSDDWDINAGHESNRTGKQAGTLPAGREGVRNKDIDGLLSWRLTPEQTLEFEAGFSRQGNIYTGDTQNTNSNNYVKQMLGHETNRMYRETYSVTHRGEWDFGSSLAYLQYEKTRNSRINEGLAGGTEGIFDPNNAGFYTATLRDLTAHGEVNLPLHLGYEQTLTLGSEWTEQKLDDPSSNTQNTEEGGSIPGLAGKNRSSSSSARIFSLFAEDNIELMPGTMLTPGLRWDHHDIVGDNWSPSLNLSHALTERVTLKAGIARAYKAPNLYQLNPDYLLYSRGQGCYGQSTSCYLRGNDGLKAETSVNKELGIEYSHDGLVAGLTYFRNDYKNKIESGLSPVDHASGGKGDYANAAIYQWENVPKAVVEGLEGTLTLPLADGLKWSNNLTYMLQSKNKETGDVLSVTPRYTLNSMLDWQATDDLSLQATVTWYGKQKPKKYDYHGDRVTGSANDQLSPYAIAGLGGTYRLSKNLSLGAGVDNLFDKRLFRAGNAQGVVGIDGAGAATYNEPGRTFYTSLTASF

O=C(N[C@H]1COC(=O)[C@@H](NC(=O)c2cccc([O-])c2[O-])COC(=O)[C@@H](NC(=O)c2cccc([O-])c2[O-])COC1=O)c1cccc([O-])c1[O-].[Fe+3] [Fe^3+-enterobactin]
coelution with protein on size-exclusion column (PfeA): coelute with PfeA
^55Fe-siderophore binding at the bacterial surface ([1]; CCCP treated cells (200 µM), 500 nM ^55Fe-enterobactin, 30 min, compared with wild-type PAO1): much higher levels of binding
^55Fe-enterobactin binding and uptake ([1]; cells not treated with CCCP, 500 nM ^55Fe-enterobactin, 30 min): less efficient
Comptage (dpm) ([1]; ∆pfeA (pMMBpfeA) (no CCCP)): 9474 dpm and 9114 dpm and 9574 dpm
55Fe incorporated, pmol/ml/DO600 ([1]; ∆pfeA (pMMBpfeA) (no CCCP)): 121.551 pmol/ml/DO600 and 116.932 pmol/ml/DO600 and 122.834 pmol/ml/DO600
Comptage (dpm) ([1]; ∆pfeA (pMMBpfeA) + CCCP): 6090 dpm and 6603 dpm and 5856 dpm
55Fe incorporated, pmol/ml/DO600 ([1]; ∆pfeA (pMMBpfeA) + CCCP): 78.1342 pmol/ml/DO600 and 84.716 pmol/ml/DO600 and 75.132 pmol/ml/DO600
